Test results: ChEMBL document CHEMBL5465560, “Selectivity Literature for EUbOPEN Chemogenomic Library” (2024)
Values belong to the compound of their own block, whether it stands above or below them.

Tests used:
[1] = target: Ribosomal protein S6 kinase alpha-2 (Homo sapiens) (UniProt Q15349); assay: Selectivity interaction (KinomeScan (DiscoverX)) EUB0000311b RPS6KA2; details: at 1 µM
[2] = target: Cyclin-dependent kinase 17 (Homo sapiens) (UniProt Q00537); assay: Selectivity interaction (ActivX KiNativ screen (kinase selectivity in THP-1 cell lysates)) EUB0000639a CDK17; type: subcellular; details: lysate
Cyclin-dependent kinase 17 (Homo sapiens), sequence (Q00537 whole entry, looked up): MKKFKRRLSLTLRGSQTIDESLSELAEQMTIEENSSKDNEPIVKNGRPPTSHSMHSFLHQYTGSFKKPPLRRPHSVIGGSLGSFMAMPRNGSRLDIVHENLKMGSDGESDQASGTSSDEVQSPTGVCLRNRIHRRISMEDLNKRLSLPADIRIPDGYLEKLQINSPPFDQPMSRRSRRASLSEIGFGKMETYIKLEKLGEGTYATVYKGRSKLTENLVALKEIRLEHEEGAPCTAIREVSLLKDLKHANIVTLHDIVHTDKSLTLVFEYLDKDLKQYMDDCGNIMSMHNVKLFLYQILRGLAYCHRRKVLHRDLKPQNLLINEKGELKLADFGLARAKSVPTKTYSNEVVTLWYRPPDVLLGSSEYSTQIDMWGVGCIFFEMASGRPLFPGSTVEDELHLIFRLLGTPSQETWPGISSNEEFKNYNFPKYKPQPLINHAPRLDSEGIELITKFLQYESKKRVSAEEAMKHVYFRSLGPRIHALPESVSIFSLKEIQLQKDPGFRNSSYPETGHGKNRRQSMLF

[3] = target: Tyrosine-protein kinase Yes (Homo sapiens) (UniProt P07947); assay: Selectivity interaction (ProQinase) EUB0000171b YES1
Tyrosine-protein kinase Yes (Homo sapiens), sequence (P07947 2-543 limits assumed): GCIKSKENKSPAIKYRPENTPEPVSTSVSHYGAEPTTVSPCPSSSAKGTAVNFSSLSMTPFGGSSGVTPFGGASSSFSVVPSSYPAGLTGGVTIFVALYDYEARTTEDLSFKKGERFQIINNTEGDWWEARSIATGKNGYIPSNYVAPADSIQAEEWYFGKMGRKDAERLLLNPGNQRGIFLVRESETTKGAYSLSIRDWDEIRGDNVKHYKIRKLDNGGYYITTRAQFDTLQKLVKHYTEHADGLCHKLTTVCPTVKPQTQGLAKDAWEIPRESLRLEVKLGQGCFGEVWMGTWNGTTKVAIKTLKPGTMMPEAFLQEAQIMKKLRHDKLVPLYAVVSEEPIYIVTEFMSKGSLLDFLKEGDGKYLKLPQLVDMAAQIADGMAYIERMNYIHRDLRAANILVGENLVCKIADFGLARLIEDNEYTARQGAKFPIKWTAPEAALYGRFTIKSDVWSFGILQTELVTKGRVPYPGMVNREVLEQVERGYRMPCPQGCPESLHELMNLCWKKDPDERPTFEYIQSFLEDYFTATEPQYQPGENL

[4] = target: Insulin receptor (Homo sapiens, UniProt P06213); assay: Selectivity interaction (Kinase panel (enzymatic assay)) EUB0000595a INSR
Insulin receptor, sequence (P06213 28-758 limits assumed): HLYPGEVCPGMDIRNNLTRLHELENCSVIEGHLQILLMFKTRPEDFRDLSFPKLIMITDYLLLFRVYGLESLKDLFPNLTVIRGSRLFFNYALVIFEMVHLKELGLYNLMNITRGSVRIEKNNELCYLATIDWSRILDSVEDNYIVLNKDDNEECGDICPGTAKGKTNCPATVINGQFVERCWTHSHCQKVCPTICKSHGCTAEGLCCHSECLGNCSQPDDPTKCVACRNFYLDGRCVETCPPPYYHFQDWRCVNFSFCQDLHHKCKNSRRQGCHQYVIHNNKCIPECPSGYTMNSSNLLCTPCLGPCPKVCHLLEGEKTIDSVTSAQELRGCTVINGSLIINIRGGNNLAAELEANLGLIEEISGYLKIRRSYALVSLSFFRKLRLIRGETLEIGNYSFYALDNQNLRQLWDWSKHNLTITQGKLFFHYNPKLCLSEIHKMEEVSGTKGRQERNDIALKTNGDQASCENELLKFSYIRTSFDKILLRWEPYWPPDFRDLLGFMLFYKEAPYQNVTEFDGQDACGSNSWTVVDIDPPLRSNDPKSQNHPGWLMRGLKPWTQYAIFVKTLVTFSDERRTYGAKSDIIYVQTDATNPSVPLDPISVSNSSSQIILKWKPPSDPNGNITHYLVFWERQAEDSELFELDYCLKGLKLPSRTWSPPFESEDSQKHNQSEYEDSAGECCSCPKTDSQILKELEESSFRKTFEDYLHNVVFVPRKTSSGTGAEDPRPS
Insulin receptor, sequence (P06213 763-1382 limits assumed): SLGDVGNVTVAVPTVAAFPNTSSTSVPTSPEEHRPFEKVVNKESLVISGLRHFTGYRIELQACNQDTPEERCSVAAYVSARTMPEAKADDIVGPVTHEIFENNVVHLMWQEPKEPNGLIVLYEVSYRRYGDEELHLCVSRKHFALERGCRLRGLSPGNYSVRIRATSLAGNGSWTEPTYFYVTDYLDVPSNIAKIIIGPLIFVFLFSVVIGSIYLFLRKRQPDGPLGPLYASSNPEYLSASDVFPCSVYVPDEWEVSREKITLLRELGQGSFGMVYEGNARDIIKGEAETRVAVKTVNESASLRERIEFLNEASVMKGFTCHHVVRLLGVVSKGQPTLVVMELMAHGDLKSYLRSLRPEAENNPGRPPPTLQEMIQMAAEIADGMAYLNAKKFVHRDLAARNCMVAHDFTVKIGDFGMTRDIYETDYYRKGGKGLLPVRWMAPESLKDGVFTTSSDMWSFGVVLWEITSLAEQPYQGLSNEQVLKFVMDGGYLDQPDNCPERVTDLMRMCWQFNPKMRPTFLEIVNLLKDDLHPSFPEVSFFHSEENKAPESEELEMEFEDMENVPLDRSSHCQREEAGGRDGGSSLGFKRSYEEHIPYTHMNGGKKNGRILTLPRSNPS

[5] = target: Glycogen synthase kinase-3 beta (Homo sapiens, UniProt P49841); assay: Selectivity interaction (KinomeScan (DiscoverX)) EUB0001049a GSK3B; details: at 1 µM
Glycogen synthase kinase-3 beta, sequence (P49841 whole entry, looked up): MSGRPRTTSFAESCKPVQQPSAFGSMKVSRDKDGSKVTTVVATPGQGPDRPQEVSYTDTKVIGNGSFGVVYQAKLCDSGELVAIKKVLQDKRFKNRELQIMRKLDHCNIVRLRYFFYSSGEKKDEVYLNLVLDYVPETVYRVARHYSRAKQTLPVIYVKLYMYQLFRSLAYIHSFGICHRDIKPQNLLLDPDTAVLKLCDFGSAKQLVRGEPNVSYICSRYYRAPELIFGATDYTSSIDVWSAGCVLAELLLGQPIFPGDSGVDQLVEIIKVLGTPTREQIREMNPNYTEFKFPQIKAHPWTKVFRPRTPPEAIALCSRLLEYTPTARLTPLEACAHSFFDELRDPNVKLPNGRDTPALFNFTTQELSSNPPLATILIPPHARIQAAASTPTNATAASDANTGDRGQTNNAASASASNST

[6] = target: T1, Activin receptor type-1 (Homo sapiens) (UniProt Q04771); assay: Selectivity interaction (Ambit KINOMEscan and KiNATiv profiling in Jurkat cells) EUB0000090b ACVR1; type: cell-based; details: at 1 µM
T1 sequence (whole entry): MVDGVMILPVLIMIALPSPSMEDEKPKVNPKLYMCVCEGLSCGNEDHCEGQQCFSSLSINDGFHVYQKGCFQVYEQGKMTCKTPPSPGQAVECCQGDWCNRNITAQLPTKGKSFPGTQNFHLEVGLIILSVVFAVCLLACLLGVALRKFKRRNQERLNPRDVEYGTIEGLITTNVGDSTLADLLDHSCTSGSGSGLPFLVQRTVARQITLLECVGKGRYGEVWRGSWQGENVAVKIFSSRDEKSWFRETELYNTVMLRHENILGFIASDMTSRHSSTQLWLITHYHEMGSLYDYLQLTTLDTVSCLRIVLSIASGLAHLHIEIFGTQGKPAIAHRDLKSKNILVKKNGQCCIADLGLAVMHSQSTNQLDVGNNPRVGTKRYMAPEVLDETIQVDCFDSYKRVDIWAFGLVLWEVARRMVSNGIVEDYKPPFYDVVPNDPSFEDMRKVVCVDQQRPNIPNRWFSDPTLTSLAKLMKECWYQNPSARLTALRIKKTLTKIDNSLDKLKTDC

[7] = target: Citron Rho-interacting kinase (Homo sapiens) (UniProt O14578); assay: Selectivity interaction (KinomeScan (DiscoverX)) EUB0000655a CIT; details: at 10 µM
[8] = target: Cyclin-dependent kinase 16 (Homo sapiens) (UniProt Q00536); assay: Selectivity interaction (KinomeScan (DiscoverX)) EUB0001079a CDK16; details: at 1 µM
Cyclin-dependent kinase 16 (Homo sapiens), sequence (Q00536 whole entry): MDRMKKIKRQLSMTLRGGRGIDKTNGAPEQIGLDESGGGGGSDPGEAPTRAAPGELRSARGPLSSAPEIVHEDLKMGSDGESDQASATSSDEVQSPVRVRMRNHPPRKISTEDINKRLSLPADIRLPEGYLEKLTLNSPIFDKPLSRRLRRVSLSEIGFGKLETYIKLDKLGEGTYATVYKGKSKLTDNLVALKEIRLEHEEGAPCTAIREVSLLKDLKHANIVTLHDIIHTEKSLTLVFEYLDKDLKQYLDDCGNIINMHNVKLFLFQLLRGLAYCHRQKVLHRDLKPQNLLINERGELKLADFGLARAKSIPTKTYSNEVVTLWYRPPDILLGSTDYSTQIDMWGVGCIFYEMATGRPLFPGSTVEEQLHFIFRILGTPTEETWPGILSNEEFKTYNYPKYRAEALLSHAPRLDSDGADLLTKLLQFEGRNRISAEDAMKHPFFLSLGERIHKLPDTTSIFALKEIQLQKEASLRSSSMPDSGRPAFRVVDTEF

[9] = target: T2, Histone-lysine N-methyltransferase SUV39H1 (Homo sapiens) (UniProt O43463); details: at 1 µM
T2 sequence (whole entry): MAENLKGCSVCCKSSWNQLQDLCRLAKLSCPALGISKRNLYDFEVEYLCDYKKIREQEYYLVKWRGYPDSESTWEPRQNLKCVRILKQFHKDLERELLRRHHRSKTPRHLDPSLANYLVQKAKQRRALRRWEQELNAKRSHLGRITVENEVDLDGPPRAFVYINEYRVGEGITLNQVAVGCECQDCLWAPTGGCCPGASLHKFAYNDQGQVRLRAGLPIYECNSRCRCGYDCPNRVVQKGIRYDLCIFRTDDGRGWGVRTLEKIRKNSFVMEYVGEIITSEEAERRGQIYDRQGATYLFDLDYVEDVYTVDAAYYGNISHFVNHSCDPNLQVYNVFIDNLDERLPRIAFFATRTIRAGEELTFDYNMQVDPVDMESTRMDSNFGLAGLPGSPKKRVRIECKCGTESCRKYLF

[10] = target: Serine/threonine-protein kinase RIO2 (Homo sapiens) (UniProt Q9BVS4); assay: Selectivity interaction (KinomeScan (DiscoverX)) EUB0001550a RIOK2; details: at 1 µM
Serine/threonine-protein kinase RIO2 (Homo sapiens), sequence (Q9BVS4 whole entry, looked up): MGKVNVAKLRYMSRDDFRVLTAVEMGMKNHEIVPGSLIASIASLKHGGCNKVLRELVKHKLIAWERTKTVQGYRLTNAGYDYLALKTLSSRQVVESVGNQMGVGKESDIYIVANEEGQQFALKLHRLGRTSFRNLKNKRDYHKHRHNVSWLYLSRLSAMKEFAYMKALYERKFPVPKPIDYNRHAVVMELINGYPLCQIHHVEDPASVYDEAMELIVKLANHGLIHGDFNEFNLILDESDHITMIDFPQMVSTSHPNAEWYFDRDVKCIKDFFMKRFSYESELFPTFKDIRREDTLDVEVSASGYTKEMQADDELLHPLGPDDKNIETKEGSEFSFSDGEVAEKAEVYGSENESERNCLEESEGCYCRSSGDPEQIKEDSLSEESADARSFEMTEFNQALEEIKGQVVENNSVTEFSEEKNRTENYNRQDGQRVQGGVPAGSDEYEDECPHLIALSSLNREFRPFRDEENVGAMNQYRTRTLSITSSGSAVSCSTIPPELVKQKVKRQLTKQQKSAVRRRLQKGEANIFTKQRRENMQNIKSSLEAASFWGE

[11] = target: T3, 3-phosphoinositide-dependent protein kinase 1 (Homo sapiens) (UniProt O15530); assay: Selectivity interaction (KinomeScan (DiscoverX)) EUB0000092b PDPK1; details: at 10 µM
T3 sequence (whole entry): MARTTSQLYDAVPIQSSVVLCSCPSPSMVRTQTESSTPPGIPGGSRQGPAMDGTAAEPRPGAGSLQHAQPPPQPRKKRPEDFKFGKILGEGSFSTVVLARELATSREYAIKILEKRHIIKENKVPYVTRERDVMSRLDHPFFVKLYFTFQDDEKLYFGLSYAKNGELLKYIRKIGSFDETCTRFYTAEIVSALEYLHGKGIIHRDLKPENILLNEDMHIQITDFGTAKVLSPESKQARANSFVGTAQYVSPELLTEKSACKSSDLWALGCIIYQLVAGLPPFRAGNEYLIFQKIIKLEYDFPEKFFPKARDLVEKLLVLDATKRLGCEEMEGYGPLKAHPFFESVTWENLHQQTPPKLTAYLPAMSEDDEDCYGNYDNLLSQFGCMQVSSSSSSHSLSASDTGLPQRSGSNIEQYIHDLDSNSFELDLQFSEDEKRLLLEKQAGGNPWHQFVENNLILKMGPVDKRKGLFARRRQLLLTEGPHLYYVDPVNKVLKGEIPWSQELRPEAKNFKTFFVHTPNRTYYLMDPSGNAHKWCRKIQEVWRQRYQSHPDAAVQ

Ribosomal protein S6 kinase alpha-2 (Homo sapiens), sequence (Q15349 whole entry): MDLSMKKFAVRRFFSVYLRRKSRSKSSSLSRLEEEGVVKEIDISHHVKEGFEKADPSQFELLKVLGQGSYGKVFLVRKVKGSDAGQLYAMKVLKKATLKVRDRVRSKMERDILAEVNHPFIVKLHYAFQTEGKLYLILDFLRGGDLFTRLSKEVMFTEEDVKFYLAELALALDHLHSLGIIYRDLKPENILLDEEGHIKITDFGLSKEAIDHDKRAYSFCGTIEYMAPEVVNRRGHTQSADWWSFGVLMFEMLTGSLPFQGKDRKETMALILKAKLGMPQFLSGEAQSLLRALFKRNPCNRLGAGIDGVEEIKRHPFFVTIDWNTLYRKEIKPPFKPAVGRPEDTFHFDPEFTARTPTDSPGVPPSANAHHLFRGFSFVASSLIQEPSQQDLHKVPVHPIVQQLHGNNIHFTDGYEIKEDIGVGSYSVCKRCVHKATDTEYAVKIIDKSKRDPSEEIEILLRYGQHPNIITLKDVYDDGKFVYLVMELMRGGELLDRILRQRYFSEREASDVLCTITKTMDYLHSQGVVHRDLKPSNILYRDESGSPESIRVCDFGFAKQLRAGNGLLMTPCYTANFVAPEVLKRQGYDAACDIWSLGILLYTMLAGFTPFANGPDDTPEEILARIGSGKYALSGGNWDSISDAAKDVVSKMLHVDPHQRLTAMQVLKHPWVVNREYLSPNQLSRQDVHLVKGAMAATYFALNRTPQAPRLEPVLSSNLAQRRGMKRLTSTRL

% of control [1]: 0%
SMILES: CCc1ccccc1C(=O)Nc1n[nH]c2c(C)c(F)c(C3C(C#N)=C(C)N(C)C(C)=C3C#N)cc12 [BAY-3827]

% of inhibition ([2]; at 0.01 µM): -4.8% | % of inhibition ([2]; at 0.04 µM): -2.9% | % of inhibition ([2]; at 0.2 µM): 2.8% | % of inhibition ([2]; at 1 µM): 6% | % of inhibition ([2]; at 5 µM): 5.6%
SMILES: CC[C@@H]1[C@H](F)C(=O)N[C@@H]1COc1nccc2cc(C(N)=O)c(OC)cc12 [ZIMLOVISERTIB]

% of control ([3]; at 1 µM): 89% | % of control ([3]; at 5 µM): 75%
SMILES: C=CC(=O)Nc1cccc(C(=O)Nc2ccc(Nc3cc(-c4[nH]c(SC)nc4C)ccn3)cc2)c1

SMILES: COCC(=O)NC/C=C/c1ccc2ncnc(Nc3ccc(Oc4ccc(C)nc4)c(C)c3)c2c1 [CP-724714]
IC50 [4]: > 10 µM

SMILES: COc1cc(Nc2nc(C)cc(-c3cnn4nc(OC)ccc34)n2)cc(C(F)(F)F)c1
% of control [5]: 100%

SMILES: CN(C)C/C=C/C(=O)Nc1ccc(C(=O)N2CCCC(Nc3ncc(Cl)c(-c4c[nH]c5ccccc45)n3)C2)cc1 (stereo unspecified)
% of control [6]: 97%

SMILES: CN(C)CCOc1ccc(-c2nc(-c3ccncc3)c(-c3ccc4c(c3)CC/C4=N\O)[nH]2)cc1
% of control [7]: 0.8%

SMILES: Nc1cnc(N2CCc3cc(S(=O)(=O)Nc4c(F)cc(Cl)cc4F)cc(N4CCCC4=O)c32)nc1 [TP-020n]
% of control [8]: 98%

% activity [9]: > 90%
SMILES: CNCCN1CCC(c2cc(CN(C)C(=O)c3cccc(Oc4ccccc4)c3)ccn2)CC1

% of control [10]: 32%
SMILES: CN(C)CC#Cc1ccc2[nH]c3c(c2c1)-c1nc(N)ncc1CCC3

SMILES: CCC(=O)N1CCN(c2ccc(-n3c(=O)ccc4cnc5ccc(-c6cnc7ccccc7c6)cc5c43)cc2C(F)(F)F)CC1
% of control [11]: 100%
